In patent publication US10058495B2, “Method of making a skin care product” (The Procter & Gamble Company, priority 2014, dated 2018):
Residues, ends and D or L forms follow the SMILES beside them. *: point of attachment. Palmitoyl = CCCCCCCCCCCCCCCC(=O)*

Test: In vivo skin penetration study #1 (Tape Stripping method), magnetic array vs finger
Design: species or system human
Settings: for combined amount of Pal-KTTKS on tape strips, Mean: mean of the three strip groups; for combined amount of Pal-KTTKS on tape strips, Mean / combined amount of Pal-KTTKS on tape strips: in ng; for delivery of Pal-KTTKS, active compared to passive application: three test subjects
Experimental: An in vivo skin penetration study was conducted to establish the effect of using a skin care product of the present invention by applying a skin care composition comprising Pal-KTTKS (SEQ ID NO: 1) with an applicator comprising a magnetic array. The study compared the penetration of the Pal-KTTKS (SEQ ID NO: 1) in combination with a variety of magnetic arrays (active application) to the penetration of Pal-KTTKS (SEQ ID NO: 1) applied with a finger (passive application). Penetration of Pal-KTTKS (SEQ ID NO: 1) in this example is determined according to the Tape Stripping method. In this example, the level of Pal-KTTKS (SEQ ID NO: 1) present in the extract from each tape strip was measured using HPLC and the results normalized to the protein level measured on the tape strip.
This method provides a suitable means of measuring the amount of skin care active present in skin, and comparing active versus passive application of the skin care active. Two identical rectangular areas of 15 cm^2 are marked on the volar forearms of volunteers. A measured dose (approximately 30 mg) of the Pal-KTTKS (SEQ ID NO: 1) formulation is applied to the delineated areas using a screw actuated syringe. Active application is carried out on one of the delineated areas using the three-quarter profile of a purpose made applicator (e.g., an applicator presenting one of the magnetic arrays set forth in Table 2). Passive application is accomplished on the other delineated area using the tip of a finger in a sweeping motion identical to that of the active application. The formulation is spread evenly across the entire delineated region using a sweeping motion with a fixed speed of approximately 23 cm/s to […]. The application period is 30 seconds during which time visual inspection is used to ensure even distribution and absorption of the formulation by skin. The application area is then left uncovered for a further 30 minutes to ensure complete absorption. Tape strip samples may be collected and/or analyzed immediately after the complete absorption is ensured or after a waiting period (e.g., after multiple applications of the formulation over multiple hours or days).
The tape stripping procedure is carried out using 10 commercial pre-cut 22.1 mm tape stripping adhesive discs (e.g., D-SQUAME, available from Cuderm Corporation or equivalent) with an adhesive area of 3.8 cm^2. The 10 tape strips are applied sequentially to the same sampling site, which ideally enables each tape strip to obtain a sample from deeper within the stratum corneum than the tape strip that preceded it. A 22.1 mm diameter circular region is marked at the center of the application area. A tape stripping adhesive disc is placed over the marked area and even pressure applied using, for example, a neoprene roller, rolled ten times over the adhesive disc. The adhesive disc is removed from the skin surface in a single pulling motion using manual tweezers. To ensure even removal of the skin sample, subsequent discs are removed in a “north, south, east and west” orientation, which is within the skill of the ordinary artisan. Each adhesive disc is non-destructively analysed for protein content using a suitable instrument (e.g., SquameScan™ 850 instrument commercially available from Heiland Electronics Wetzlar, Germany, or equivalent). The adhesive disc is then immediately placed into a glass vial containing extraction solvent in preparation for subsequent analysis. Solvent extractions are conducted on each tape strip using conventional extraction methods, which are well known to those of ordinary skill in the art, and measuring the amount of Pal-KTTKS (SEQ ID NO: 1) present in the extract, for example, by high performance liquid chromatography (“HPLC”) and/or mass spectrometry.
The procedure is repeated for the remaining nine strips. An additional strip is obtained from outside the area of application of the skin care formulation to serve as a blank sample. […]

In the case of CCCCCCCCCCCCCCCC(=O)N[C@@H](CCCCN)C(=O)N[C@H](C(=O)N[C@H](C(=O)N[C@@H](CCCCN)C(=O)N[C@@H](CO)C(=O)O)[C@@H](C)O)[C@@H](C)O [Pal-KTTKS, palmitoyl-lysine-threonine-threonine-lysine-serine] (Palmitoyl-KTTKS-OH; C-terminus assumed), the “combined amount of Pal-KTTKS on tape strips, Mean” value (from here on “combined amount … Mean”) (array 4, active, Average) is reported as 102.11, the “combined amount … Mean” value (array 4, active, subject 1, 1st test) is reported as 144.79 and the “combined amount … Mean” value (array 4, active, subject 1, 2nd test) is reported as 96.97. For the same compound, the “combined amount … Mean” value (array 4, active, subject 2, 1st test) was 122.02, the “combined amount … Mean” value (array 4, active, subject 2, 2nd test) was 78.21 and the “combined amount … Mean” value (array 4, active, subject 3 (2nd test of Table 7)) was 68.57. The “combined amount of Pal-KTTKS on tape strips” value (array 4, active, strips 2-4, Average) was 108.81, the “combined amount of Pal-KTTKS on tape strips” value (array 4, active, strips 2-4, subject 1, 1st test) was 158.48 and the “combined amount of Pal-KTTKS on tape strips” value (array 4, active, strips 2-4, subject 1, 2nd test) was 82.45. For the same compound, the “combined amount of Pal-KTTKS on tape strips” value (array 4, active, strips 2-4, subject 2, 1st test) was 129.33, the “combined amount of Pal-KTTKS on tape strips” value (array 4, active, strips 2-4, subject 2, 2nd test) was 94.10 and the “combined amount of Pal-KTTKS on tape strips” value (array 4, active, strips 2-4, subject 3 (2nd test of Table 7)) was 79.66. For the same compound, the “combined amount of Pal-KTTKS on tape strips” value (array 4, active, strips 5-7, Average) was 107.95, the “combined amount of Pal-KTTKS on tape strips” value (array 4, active, strips 5-7, subject 1, 1st test) was 154.85 and the “combined amount of Pal-KTTKS on tape strips” value (array 4, active, strips 5-7, subject 1, 2nd test) was 117.42. The “combined amount of Pal-KTTKS on tape strips” value (array 4, active, strips 5-7, subject 2, 1st test) was 121.51, the “combined amount of Pal-KTTKS on tape strips” value (array 4, active, strips 5-7, subject 2, 2nd test) was 73.41 and the “combined amount of Pal-KTTKS on tape strips” value (array 4, active, strips 5-7, subject 3 (2nd test of Table 7)) was 72.59. The “combined amount of Pal-KTTKS on tape strips” value (array 4, active, strips 8-10, Average) was 89.57, the “combined amount of Pal-KTTKS on tape strips” value (array 4, active, strips 8-10, subject 1, 1st test) was 121.04 and the “combined amount of Pal-KTTKS on tape strips” value (array 4, active, strips 8-10, subject 1, 2nd test) was 91.03. For the same compound, the “combined amount of Pal-KTTKS on tape strips” value (array 4, active, strips 8-10, subject 2, 1st test) was 115.22, the “combined amount of Pal-KTTKS on tape strips” value (array 4, active, strips 8-10, subject 2, 2nd test) was 67.12 and the “combined amount of Pal-KTTKS on tape strips” value (array 4, active, strips 8-10, subject 3 (2nd test of Table 7)) was 53.45. For the same compound, the “combined amount … Mean” value (array 9, active, average of subjects) was 165.57, the “combined amount … Mean” value (array 9, active, subject 1) was 154.29 and the “combined amount … Mean” value (array 9, active, subject 2) was 201.48. For the same compound, the “combined amount … Mean” value (array 9, active, subject 3) was 140.93, the “combined amount of Pal-KTTKS on tape strips” value (array 9, active, strips 2-4, average of subjects) was 263.02 and the “combined amount of Pal-KTTKS on tape strips” value (array 9, active, strips 2-4, subject 1) was 177.13. For the same compound, the “combined amount of Pal-KTTKS on tape strips” value (array 9, active, strips 2-4, subject 2) was 440.14, the “combined amount of Pal-KTTKS on tape strips” value (array 9, active, strips 2-4, subject 3) was 171.79 and the “combined amount of Pal-KTTKS on tape strips” value (array 9, active, strips 5-7, average of subjects) was 120.01. For the same compound, the “combined amount of Pal-KTTKS on tape strips” value (array 9, active, strips 5-7, subject 1) was 131.72, the “combined amount of Pal-KTTKS on tape strips” value (array 9, active, strips 5-7, subject 2) was 100.02 and the “combined amount of Pal-KTTKS on tape strips” value (array 9, active, strips 5-7, subject 3) was 128.29. For the same compound, the “combined amount of Pal-KTTKS on tape strips” value (array 9, active, strips 8-10, average of subjects) was 113.67, the “combined amount of Pal-KTTKS on tape strips” value (array 9, active, strips 8-10, subject 1) was 154.03 and the “combined amount of Pal-KTTKS on tape strips” value (array 9, active, strips 8-10, subject 2) was 64.27. The “combined amount of Pal-KTTKS on tape strips” value (array 9, active, strips 8-10, subject 3) was 122.70, the “delivery of Pal-KTTKS, active compared to passive application” value (bi-directional magnetic array #9) was “significant enhanced delivery” and the “combined amount … Mean” value (passive, comparator of array 4, Average) was 50.00. The “combined amount … Mean” value (passive, comparator of array 4, subject 1, 1st test) was 59.18, the “combined amount … Mean” value (passive, comparator of array 4, subject 1, 2nd test) was 42.29 and the “combined amount … Mean” value (passive, comparator of array 4, subject 2, 1st test) was 52.85. For the same compound, the “combined amount … Mean” value (passive, comparator of array 4, subject 2, 2nd test) was 23.30, the “combined amount … Mean” value (passive, comparator of array 4, subject 3 (2nd test of Table 8)) was 72.39 and the “combined amount of Pal-KTTKS on tape strips” value (passive, comparator of array 4, strips 2-4, Average) was 70.42. The “combined amount of Pal-KTTKS on tape strips” value (passive, comparator of array 4, strips 2-4, subject 1, 1st test) was 79.94, the “combined amount of Pal-KTTKS on tape strips” value (passive, comparator of array 4, strips 2-4, subject 1, 2nd test) was 69.89 and the “combined amount of Pal-KTTKS on tape strips” value (passive, comparator of array 4, strips 2-4, subject 2, 1st test) was 86.09. The “combined amount of Pal-KTTKS on tape strips” value (passive, comparator of array 4, strips 2-4, subject 2, 2nd test) was 28.02, the “combined amount of Pal-KTTKS on tape strips” value (passive, comparator of array 4, strips 2-4, subject 3 (2nd test of Table 8)) was 88.18 and the “combined amount of Pal-KTTKS on tape strips” value (passive, comparator of array 4, strips 5-7, Average) was 49.50. For the same compound, the “combined amount of Pal-KTTKS on tape strips” value (passive, comparator of array 4, strips 5-7, subject 1, 1st test) was 65.58, the “combined amount of Pal-KTTKS on tape strips” value (passive, comparator of array 4, strips 5-7, subject 1, 2nd test) was 35.35 and the “combined amount of Pal-KTTKS on tape strips” value (passive, comparator of array 4, strips 5-7, subject 2, 1st test) was 46.95. For the same compound, the “combined amount of Pal-KTTKS on tape strips” value (passive, comparator of array 4, strips 5-7, subject 2, 2nd test) was 23.11, the “combined amount of Pal-KTTKS on tape strips” value (passive, comparator of array 4, strips 5-7, subject 3 (2nd test of Table 8)) was 76.52 and the “combined amount of Pal-KTTKS on tape strips” value (passive, comparator of array 4, strips 8-10, Average) was 30.08. For the same compound, the “combined amount of Pal-KTTKS on tape strips” value (passive, comparator of array 4, strips 8-10, subject 1, 1st test) was 32.01, the “combined amount of Pal-KTTKS on tape strips” value (passive, comparator of array 4, strips 8-10, subject 1, 2nd test) was 21.64 and the “combined amount of Pal-KTTKS on tape strips” value (passive, comparator of array 4, strips 8-10, subject 2, 1st test) was 25.51. For the same compound, the “combined amount of Pal-KTTKS on tape strips” value (passive, comparator of array 4, strips 8-10, subject 2, 2nd test) was 18.76, the “combined amount of Pal-KTTKS on tape strips” value (passive, comparator of array 4, strips 8-10, subject 3 (2nd test of Table 8)) was 52.45 and the “combined amount … Mean” value (passive, comparator of array 9, average of subjects) was 47.80. For the same compound, the “combined amount … Mean” value (passive, comparator of array 9, subject 1) was 42.29, the “combined amount … Mean” value (passive, comparator of array 9, subject 2) was 28.71 and the “combined amount … Mean” value (passive, comparator of array 9, subject 3) was 72.39. The “combined amount of Pal-KTTKS on tape strips” value (passive, comparator of array 9, strips 2-4, average of subjects) was 62.79, the “combined amount of Pal-KTTKS on tape strips” value (passive, comparator of array 9, strips 2-4, subject 1) was 69.89 and the “combined amount of Pal-KTTKS on tape strips” value (passive, comparator of array 9, strips 2-4, subject 2) was 30.29. The “combined amount of Pal-KTTKS on tape strips” value (passive, comparator of array 9, strips 2-4, subject 3) was 88.18, the “combined amount of Pal-KTTKS on tape strips” value (passive, comparator of array 9, strips 5-7, average of subjects) was 50.50 and the “combined amount of Pal-KTTKS on tape strips” value (passive, comparator of array 9, strips 5-7, subject 1) was 35.35. For the same compound, the “combined amount of Pal-KTTKS on tape strips” value (passive, comparator of array 9, strips 5-7, subject 2) was 39.62, the “combined amount of Pal-KTTKS on tape strips” value (passive, comparator of array 9, strips 5-7, subject 3) was 76.52 and the “combined amount of Pal-KTTKS on tape strips” value (passive, comparator of array 9, strips 8-10, average of subjects) was 30.11. For the same compound, the “combined amount of Pal-KTTKS on tape strips” value (passive, comparator of array 9, strips 8-10, subject 1) was 21.64, the “combined amount of Pal-KTTKS on tape strips” value (passive, comparator of array 9, strips 8-10, subject 2) was 16.23 and the “combined amount of Pal-KTTKS on tape strips” value (passive, comparator of array 9, strips 8-10, subject 3) was 52.45. The “delivery of Pal-KTTKS, active compared to passive application” value (uni-directional magnetic array #4) was “significant enhanced delivery”.
